Results: patent US20050054025A1 (priority 2003, published 2005)
Values after ≈ are worked out from the molar mass of the structure shown. Marks after values point to notes of the source that are not given here.

Assays:
acetylcholinesterase [1] = biological target: acetylcholinesterase (Homo sapiens, UniProt P22303); assay: biochemical; format: biochemical; settings: for IC20: read-out: Porex Dot Test IC20
acetylcholinesterase [2] = settings: cited from earlier work

Sequence of acetylcholinesterase (Homo sapiens, UniProt P22303) (P22303 32-614, species assumed): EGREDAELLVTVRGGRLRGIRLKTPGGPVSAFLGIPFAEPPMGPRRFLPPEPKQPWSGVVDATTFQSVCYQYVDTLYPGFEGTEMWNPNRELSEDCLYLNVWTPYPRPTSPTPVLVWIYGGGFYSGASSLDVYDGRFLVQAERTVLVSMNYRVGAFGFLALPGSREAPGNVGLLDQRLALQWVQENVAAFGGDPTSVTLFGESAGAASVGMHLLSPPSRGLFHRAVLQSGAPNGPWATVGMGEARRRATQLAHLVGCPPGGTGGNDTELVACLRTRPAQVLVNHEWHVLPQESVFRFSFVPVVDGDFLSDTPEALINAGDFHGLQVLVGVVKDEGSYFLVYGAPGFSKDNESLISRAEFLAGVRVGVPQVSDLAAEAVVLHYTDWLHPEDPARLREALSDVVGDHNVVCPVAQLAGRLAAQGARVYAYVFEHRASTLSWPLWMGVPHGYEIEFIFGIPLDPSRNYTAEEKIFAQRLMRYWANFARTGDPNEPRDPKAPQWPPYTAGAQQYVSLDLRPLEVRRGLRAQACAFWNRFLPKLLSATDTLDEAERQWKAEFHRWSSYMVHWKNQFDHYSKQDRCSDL

Structure (SMILES)	IC20 (acetylcholinesterase [1])	EnviroLogix IC20 (acetylcholinesterase [2])	also measured
CNC(=O)O/N=C/C(C)(C)SC [Aldicarb]	33 ng/mL (≈ 173 nM)		
CNC(=O)Oc1ccccc1OC(C)C [Baygon (propoxur), propoxur]	9 ng/mL (≈ 43 nM)	50 μg/L	
CNC(=O)Oc1cccc2ccccc12 [Carbaryl]	9 ng/mL (≈ 44.7 nM)	110 μg/L	
CNC(=O)Oc1cccc2c1OC(C)(C)C2 [Carbofuran]	0.4 ng/mL (≈ 1.81 nM)	40 μg/L	
CCOP(=S)(OCC)Oc1nc(Cl)c(Cl)cc1Cl [Chloropyrifos]		5.2 μg/L	IC50 (acetylcholinesterase [1]): 0.285 nM
CCOP(=S)(OCC)Oc1cc(C)nc(C(C)C)n1 [Diazinon]	0.14 ng/mL (≈ 0.46 nM)		EnviroLogix IC50 (cells marked *) (acetylcholinesterase [2]): 3.0* μg/L
CCOP(=S)(OCC)SCCSCC [Disulfoton]	0.5 ng/mL (≈ 1.82 nM)		
CCOC(=O)CC(SP(=S)(OC)OC)C(=O)OCC (stereo not drawn) [Malithion]		60 μg/L	Porex Dot Test IC20 (acetylcholinesterase [1]): 0.11 ng/mL
CNC(=O)ON=C(C)SC [Methomyl]	0.011 ng/mL (≈ 0.0678 nM)		
CNC(=O)O/N=C(\SC)C(=O)N(C)C [Oxymyl]		100 μg/L	Porex Dot Test IC20 (acetylcholinesterase [1]): 16.7 ng/mL
CCOP(=O)(OCC)Oc1ccc([N+](=O)[O-])cc1 [Paraoxon]			detectable amount using instrument detection (acetylcholinesterase [1]): about 0.5 ng/mL; detectable level, determined visually (acetylcholinesterase [1]): 10 ng/mL
CCOP(=S)(OCC)SCSC(C)(C)C [Terbufos]	143 ng/mL (≈ 496 nM)		EnviroLogix IC50 (cells marked *) (acetylcholinesterase [2]): 12* μg/L
